Reference: ChEMBL document CHEMBL3885881, “DrugMatrix”

Species on record: Rattus norvegicus
Assay: DrugMatrix - Regimen: Daily Repeat
Format: toxicity, organism-based, Sprague-Dawley
Set-up: regimen Daily Repeat, gender Male, age 6-8 weeks
Settings: in vivo, po, route oral GAVAGE, vehicle .5 % CMC; for ABSOLUTE BASOPHIL / ABSOLUTE EOSINOPHIL / ABSOLUTE LYMPHOCYTE / ABSOLUTE MONOCYTE / ABSOLUTE SEGMENTED NEUTROPHIL / BASOPHIL / EOSINOPHIL / ERYTHROCYTE COUNT / HEMATOCRIT / HEMOGLOBIN / LEUKOCYTE COUNT / LYMPHOCYTE / MEAN CORPUSCULAR HEMOGLOBIN / MEAN CORPUSCULAR HEMOGLOBIN CONCENTRATION / MEAN CORPUSCULAR VOLUME / MONOCYTE / NEUTROPHIL / NUCLEATED RED BLOOD CELLS / PLATELET COUNT: tissue Blood; for ALANINE AMINOTRANSFERASE / ALBUMIN / ALKALINE PHOSPHATASE / ASPARTATE AMINOTRANSFERASE / BLOOD UREA NITROGEN / CARBON DIOXIDE / CHLORIDE / CHOLESTEROL / CREATINE PHOSPHOKINASE / CREATININE / GLUCOSE / LACTATE DEHYDROGENASE / LIPASE / PHOSPHORUS / POTASSIUM / SODIUM / TOTAL BILIRUBIN / TOTAL PROTEIN / URIC ACID: tissue Plasma
[1] = 30 mg/kg, 72 h, dose level Low, time 3 day
[2] = 30 mg/kg, 120 h, dose level Low, time 5 day
[3] = 1200 mg/kg, 72 h, dose level High, time 3 day
[4] = 1200 mg/kg, 120 h, dose level High, time 5 day

## CN(Cc1cc(Br)cc(Br)c1N)C1CCCCC1 [BROMHEXINE]
[1]
  ABSOLUTE BASOPHIL: 0 CELLS/uL
  ABSOLUTE EOSINOPHIL: 52.67 CELLS/uL
  ABSOLUTE LYMPHOCYTE: 13749.67 CELLS/uL
  ABSOLUTE MONOCYTE: 46.33 CELLS/uL
  ABSOLUTE SEGMENTED NEUTROPHIL: 484.67 CELLS/uL
  BASOPHIL: 0%
  EOSINOPHIL: 0.33%
  ERYTHROCYTE COUNT: 5.57 x10E6/uL
  HEMATOCRIT: 34.67%
  HEMOGLOBIN: 13.63 G/DL
  LEUKOCYTE COUNT: 14.33 x10E3/uL
  LYMPHOCYTE: 96%
  MEAN CORPUSCULAR HEMOGLOBIN: 24.5 pg
  MEAN CORPUSCULAR HEMOGLOBIN CONCENTRATION: 39.37 G/DL
  MEAN CORPUSCULAR VOLUME: 62.23 fL
  MONOCYTE: 0.33%
  NEUTROPHIL: 3.33%
  NUCLEATED RED BLOOD CELLS: 0.33 /100WBC
  PLATELET COUNT: 1277.67 x10E3/uL
  ALANINE AMINOTRANSFERASE: 49 u/L
  ALBUMIN: 4.13 G/DL
  ALKALINE PHOSPHATASE: 406.33 u/L
  ASPARTATE AMINOTRANSFERASE: 85 u/L
  BLOOD UREA NITROGEN: 15 mg/dL
  CARBON DIOXIDE: 23 mmol/L
  CHLORIDE: 103.67 MEQ/L
  CHOLESTEROL: 65.67 mg/dL
  CREATINE PHOSPHOKINASE: 317.67 u/L
  CREATININE: 0.18 mg/dL
  GLUCOSE: 158 mg/dL
  LACTATE DEHYDROGENASE: 370.33 u/L
  LIPASE: 9 u/L
  PHOSPHORUS: 12.77 mg/dL
  POTASSIUM: 6.95 MEQ/L
  SODIUM: 145.43 MEQ/L
  TOTAL BILIRUBIN: 0.2 mg/dL
  TOTAL PROTEIN: 5.77 G/DL
  URIC ACID: 1.67 mg/dL
[2]
  ABSOLUTE BASOPHIL: 0 CELLS/uL
  ABSOLUTE EOSINOPHIL: 128.67 CELLS/uL
  ABSOLUTE LYMPHOCYTE: 16146.33 CELLS/uL
  ABSOLUTE MONOCYTE: 429 CELLS/uL
  ABSOLUTE SEGMENTED NEUTROPHIL: 1529.33 CELLS/uL
  BASOPHIL: 0%
  EOSINOPHIL: 0.67%
  ERYTHROCYTE COUNT: 5.35 x10E6/uL
  HEMATOCRIT: 33.4%
  HEMOGLOBIN: 13.33 G/DL
  LEUKOCYTE COUNT: 18.23 x10E3/uL
  LYMPHOCYTE: 88.67%
  MEAN CORPUSCULAR HEMOGLOBIN: 24.97 pg
  MEAN CORPUSCULAR HEMOGLOBIN CONCENTRATION: 39.9 G/DL
  MEAN CORPUSCULAR VOLUME: 62.5 fL
  MONOCYTE: 2.33%
  NEUTROPHIL: 8.33%
  NUCLEATED RED BLOOD CELLS: 0 /100WBC
  PLATELET COUNT: 1294.67 x10E3/uL
  ALANINE AMINOTRANSFERASE: 51.33 u/L
  ALBUMIN: 4.27 G/DL
  ALKALINE PHOSPHATASE: 334 u/L
  ASPARTATE AMINOTRANSFERASE: 80.67 u/L
  BLOOD UREA NITROGEN: 15.67 mg/dL
  CARBON DIOXIDE: 24.67 mmol/L
  CHLORIDE: 103.67 MEQ/L
  CHOLESTEROL: 75.33 mg/dL
  CREATINE PHOSPHOKINASE: 235.67 u/L
  CREATININE: 0.15 mg/dL
  GLUCOSE: 144.33 mg/dL
  LACTATE DEHYDROGENASE: 206.67 u/L
  LIPASE: 8 u/L
  PHOSPHORUS: 12.53 mg/dL
  POTASSIUM: 6.56 MEQ/L
  SODIUM: 145.97 MEQ/L
  TOTAL BILIRUBIN: 0.2 mg/dL
  TOTAL PROTEIN: 5.87 G/DL
  URIC ACID: 1.43 mg/dL
[3]
  ABSOLUTE BASOPHIL: 0 CELLS/uL
  ABSOLUTE EOSINOPHIL: 0 CELLS/uL
  ABSOLUTE LYMPHOCYTE: 11402.67 CELLS/uL
  ABSOLUTE MONOCYTE: 42 CELLS/uL
  ABSOLUTE SEGMENTED NEUTROPHIL: 922 CELLS/uL
  BASOPHIL: 0%
  EOSINOPHIL: 0%
  ERYTHROCYTE COUNT: 5.83 x10E6/uL
  HEMATOCRIT: 36.2%
  HEMOGLOBIN: 14.53 G/DL
  LEUKOCYTE COUNT: 12.37 x10E3/uL
  LYMPHOCYTE: 92.33%
  MEAN CORPUSCULAR HEMOGLOBIN: 24.93 pg
  MEAN CORPUSCULAR HEMOGLOBIN CONCENTRATION: 40.13 G/DL
  MEAN CORPUSCULAR VOLUME: 62.07 fL
  MONOCYTE: 0.33%
  NEUTROPHIL: 7.33%
  NUCLEATED RED BLOOD CELLS: 0 /100WBC
  PLATELET COUNT: 1700.33 x10E3/uL
  ALANINE AMINOTRANSFERASE: 65.67 u/L
  ALBUMIN: 4.33 G/DL
  ALKALINE PHOSPHATASE: 494.33 u/L
  ASPARTATE AMINOTRANSFERASE: 82.67 u/L
  BLOOD UREA NITROGEN: 12 mg/dL
  CARBON DIOXIDE: 21.33 mmol/L
  CHLORIDE: 102.5 MEQ/L
  CHOLESTEROL: 83.67 mg/dL
  CREATINE PHOSPHOKINASE: 249.33 u/L
  CREATININE: 0.17 mg/dL
  GLUCOSE: 162.67 mg/dL
  LACTATE DEHYDROGENASE: 125.67 u/L
  LIPASE: 13 u/L
  PHOSPHORUS: 12.63 mg/dL
  POTASSIUM: 5.48 MEQ/L
  SODIUM: 143.2 MEQ/L
  TOTAL BILIRUBIN: 0.17 mg/dL
  TOTAL PROTEIN: 5.8 G/DL
  URIC ACID: 1.93 mg/dL
[4]
  ABSOLUTE BASOPHIL: 0 CELLS/uL
  ABSOLUTE EOSINOPHIL: 0 CELLS/uL
  ABSOLUTE LYMPHOCYTE: 22503 CELLS/uL
  ABSOLUTE MONOCYTE: 323.33 CELLS/uL
  ABSOLUTE SEGMENTED NEUTROPHIL: 1973.67 CELLS/uL
  BASOPHIL: 0%
  EOSINOPHIL: 0%
  ERYTHROCYTE COUNT: 6.56 x10E6/uL
  HEMATOCRIT: 39.57%
  HEMOGLOBIN: 16.23 G/DL
  LEUKOCYTE COUNT: 24.8 x10E3/uL
  LYMPHOCYTE: 90%
  MEAN CORPUSCULAR HEMOGLOBIN: 24.77 pg
  MEAN CORPUSCULAR HEMOGLOBIN CONCENTRATION: 41.07 G/DL
  MEAN CORPUSCULAR VOLUME: 60.37 fL
  MONOCYTE: 1.33%
  NEUTROPHIL: 8.67%
  NUCLEATED RED BLOOD CELLS: 0 /100WBC
  PLATELET COUNT: 1311.67 x10E3/uL
  ALANINE AMINOTRANSFERASE: 66.67 u/L
  ALBUMIN: 4.5 G/DL
  ALKALINE PHOSPHATASE: 440.33 u/L
  ASPARTATE AMINOTRANSFERASE: 86 u/L
  BLOOD UREA NITROGEN: 19.67 mg/dL
  CARBON DIOXIDE: 25 mmol/L
  CHLORIDE: 102 MEQ/L
  CHOLESTEROL: 90.67 mg/dL
  CREATINE PHOSPHOKINASE: 343.67 u/L
  CREATININE: 0.2 mg/dL
  GLUCOSE: 132 mg/dL
  LACTATE DEHYDROGENASE: 171.33 u/L
  LIPASE: 9.33 u/L
  PHOSPHORUS: 11.03 mg/dL
  POTASSIUM: 6.65 MEQ/L
  SODIUM: 144.3 MEQ/L
  TOTAL BILIRUBIN: 0.17 mg/dL
  TOTAL PROTEIN: 6.17 G/DL
  URIC ACID: 1.33 mg/dL
